Test results reported in patent US8852556B2, “Animal model for evaluating vasomotor response in vivo” (Janssen Research & Development LLC, priority 2008, dated 2014).

Legend:
[1] = Plasma concentration of test compound after oral dosing in rabbits; assay type: in vivo, rabbit; conditions: 4 hours after the last dose; for concentration at 4 h: male, New Zealand, rabbit, plasma, rabbits, oral about 30 mg/kg for 4 days
Experimental: (§1) In another group, six adult New Zealand male rabbits (2.5-3.5 kg) were dosed orally (gavage with feeding tube) with the Imwitor/Cremophor/Water vehicle for 4 consecutive days during week 1. The vehicle (10% Imwitor, 20% Cremophor RH40 and 70% water, a light milky compound solution) was given in a total volume of 3 mL/kg per day. On day 4, three hours after oral dosing with vehicle or drug, the rabbits were anesthetized and measured for the vehicle's effect on CEA vessel lumen as described above. After week 1, the rabbits were allowed to recover for 3 days and were then orally dosed with a test compound such as torcetrapib or compound 2 at about 30 mg/kg for 4 consecutive days during week 2. On the 4th day of week 2, rabbit CEA diameter changes in response to test compounds were assessed with infusion of norepinephrine followed by acetylcholine as described above. Rabbits were again allowed to recover for an additional week to allow for drug elimination and were then subjected to daily vehicle dosing and CEA diameter changes in response to test compounds were assessed as described above.
A series of 5 images (approximately 5 minutes apart) of the CEA were taken and used for baseline lumen diameter (mm) and area (mm^2) measurements, respectively. The adrenergic agonist norepinephrine was slowly infused at about 28 μg per minute and maintained for the duration of the procedure. An infusion of acetylcholine was administered in escalating doses at about 10, 17, 30 and 56 μg/min, each for 15 minutes, in conjunction with the infusion of norepinephrine. The images were collected several times during each infusion period of 15 minutes. After the final acetylcholine and concurrent norepinephrine infusion period, all infusions were terminated and the vessel was allowed to return to its original size. About two mL of blood were sampled from the non-imaged contralateral CEA immediately after the last measurement. […] Plasma was kept in −80° C. until analyzed for the concentration of the tested compounds. […]

[2] = system: central ear artery of a rabbit; assay: Rabbit central ear artery (CEA) vasomotor response, lumen diameter and area by ultrasonic imaging; assay type: in vivo; conditions: for CEA lumen area after norepinephrine and acetylcholine (acetylcholine-induced vasodilation response) / CEA lumen diameter after norepinephrine and acetylcholine (acetylcholine-induced vasodilation response): norepinephrine-preconstricted CEA; for CEA lumen area after norepinephrine and acetylcholine (acetylcholine-induced vasodilation response): vehicle group 0.6 mm^2; for CEA lumen diameter after norepinephrine and acetylcholine (acetylcholine-induced vasodilation response): vehicle group 0.8 mm
Experimental: A group of six rabbits was anesthetized with a mixture of ketamine (50 mg/kg)/xylazine ([…]) administered intramuscularly and placed on a warming pad to maintain body temperature. Rabbit ear pinnae were shaved and depilitated using an over-the-counter depilatory agent. A segment of about 2 cm of the dorsal surface over the CEA on the right ear was coated with warmed ultrasonic gel. The baseline diameter and area of the rabbit's CEA were evaluated using a 23.5 MHz ultrasonic probe (model RMV 708). The images were recorded on a VISUALSONICS VEVO 600 system where the CEA lumen diameters and areas were subsequently measured. The vessel lumen diameter and area were expressed as mean and standard error of the mean (SEM). Norepinephrine and acetylcholine were infused in the contralateral left ear vein through a 27-gauge butterfly needle infusion set connected to an infusion pump. Images were obtained at about 5 minute intervals throughout the infusion periods.
To confirm that acetylcholine-induced vasodilation was NO-dependent, a second group of six rabbits was dosed with either the nitric oxide synthase inhibitor L-NAME (400 μg/mL) mixed in TANG® flavored drinking water (N=3) or TANG® flavored drinking water alone (N=3) for 5 consecutive days. L-NAME, N(G)-nitro-L-arginine-methyl ester, is an arginine derivative that blocks normal nitric oxide-dependent vasodilation. The rabbit CEA were then imaged on day 6. The rabbits were allowed to recover for about one week and then in crossover fashion each group of 3 was given the opposite treatment for 5 days and then imaged on day 6.
as §1
A series of 5 images (approximately 5 minutes apart) of the CEA were taken and used for baseline lumen diameter (mm) and area (mm^2) measurements, respectively. The adrenergic agonist norepinephrine was slowly infused at about 28 μg per minute and maintained for the duration of the procedure. An infusion of acetylcholine was administered in escalating doses at about 10, 17, 30 and 56 μg/min, each for 15 minutes, in conjunction with the infusion of norepinephrine. The images were collected several times during each infusion period of 15 minutes. After the final acetylcholine and concurrent norepinephrine infusion period, all infusions were terminated and the vessel was allowed to return to its original size. About two mL of blood were sampled from the non-imaged contralateral CEA immediately after the last measurement. All samples were collected into tubes containing EDTA and centrifuged at about 10,000 rpm for 6 minutes. Plasma was kept in −80° C. until analyzed for the concentration of the tested compounds. In addition, blood was taken from a naïve rabbit for generation of a standard drug concentration curve. […]

systolic blood pressure = conditions: patients receiving torcetrapib; cited from earlier work
[3] = oral about 30 mg/kg for 4 days, compared to vehicle

| SMILES | concentration at 4 h [1] | effect on acetylcholine-induced vasodilation in norepinephrine-preconstricted CEA [2, 3] | CEA lumen area after norepinephrine and acetylcholine (acetylcholine-induced vasodilation response) ([2]; oral dose 30 mg/kg for 4 days) | CEA lumen diameter after norepinephrine and acetylcholine (acetylcholine-induced vasodilation response) ([2]; oral dose 30 mg/kg for 4 days) | other results |
| --- | --- | --- | --- | --- | --- |
| O[C@@H](CN1c2cccc(-c3cccc(OC(F)(F)F)c3)c2CC[C@@H]1c1cccc(OC(F)(F)C(F)F)c1)C(F)(F)F [Compound 2, 1,1,1-Trifluoro-3-[2-{3-[(1,1,2,2-tetrafluoroethyl)oxy]phenyl}-5-{3-[(trifluoromethyl)oxy]phenyl}-3,4-dihydroquinolin-1(2H)-yl]propan-2-ol] | 2580 ± 670 nM | does not affect | ~0.6 mm^2 | about 0.8 mm | plasma concentration of compound 2 relative to torcetrapib ([1]; same dose and regimen): approximately 2.5 fold |
| COC(=O)[C@@H](N)CCCNC(=N)N[N+](=O)[O-] [L-NAME, N(G)-nitro-L-arginine-methyl ester] | – | – | – | – | effect of L-NAME on acetylcholine-induced vasodilation in norepinephrine-preconstricted CEA ([2]; L-NAME 400 μg/mL in drinking water for 5 days, imaged day 6): inhibits this acetylcholine-induced vasodilation |
| NC[C@H](O)c1ccc(O)c(O)c1 [norepinephrine] | – | – | – | – | CEA lumen area during norepinephrine infusion ([2]; norepinephrine infused at about 28 μg per minute, baseline about 0.6-0.7 mm^2): about 0.2 mm^2; CEA lumen diameter during norepinephrine infusion ([2]; norepinephrine infused at about 28 μg per minute, baseline about 0.8-0.9 mm): about 0.5 mm |
| CCOC(=O)N1c2ccc(C(F)(F)F)cc2[C@@H](N(Cc2cc(C(F)(F)F)cc(C(F)(F)F)c2)C(=O)OC)C[C@H]1CC [torcetrapib, ethyl (2R,4S)-4-[[3,5-bis(trifluoromethyl)benzyl](methoxycarbonyl)amino]-2-ethyl-6-(trifluoromethyl)-3,4-dihydroquinoline-1(2H)-carboxylate] | ~1010 nM | inhibits the acetylcholine-induced vasodilation | 0.2 mm^2 | about 0.45 mm | systolic blood pressure in patients (systolic blood pressure): higher systolic blood pressure; effect on baseline CEA lumen diameter and area (basal vascular tone) [2, 3]: caused a measurable baseline vasoconstriction; baseline CEA lumen diameter ([2]; oral dose 30 mg/kg for 4 days, prior to norepinephrine or acetylcholine, anesthetized rabbits, vehicle group 0.85 mm): about 0.55 mm; baseline CEA lumen area ([2]; oral dose 30 mg/kg for 4 days, prior to norepinephrine or acetylcholine, vehicle group 0.65 mm^2): about 0.3 mm^2 |
